Test results: patent US6866870B2 (priority 2002, dated 2005)
Where two headings read alike, the source gives them in different places.

Assays:
B. anthracis = assay type: cell-based, Bacillus anthracis; conditions: vegetative cells; component alone; 24 h
B. cereus = assay type: cell-based, Bacillus cereus
B. subtilis = assay type: cell-based, Bacillus subtilis
B. pumilus RJ 0055 = assay type: cell-based, Bacillus pumilus
L. mesenteroides B 512F = assay type: cell-based, Leuconostoc mesenteroides
[1] = test system: Xanthomonas maltophilia 948; assay type: cell-based
B. anthracis spores = assay type: cell-based, Bacillus anthracis; conditions: component alone
B. cereus spores = assay type: cell-based, Bacillus cereus
B. subtilis spores = assay type: cell-based, Bacillus subtilis
[2] = test system: B. pumilus RJ 0055 spores; assay type: cell-based, Bacillus pumilus
[3] = test system: Pseudomonas aeruginosa ATCC 1942
[4] = vegetative cells, component alone, 24 h
[5] = component alone, 24 hours at 35° C.

OO [H2O2, hydrogen peroxide]
MIC (B. anthracis): 0.01 wt % | MIC (B. cereus): 0.025 wt % | MIC (B. subtilis): 0.025 wt % | MIC (B. pumilus RJ 0055): 0.025 wt % | MIC (L. mesenteroides B 512F): 0.006 wt % | MIC [1]: 0.005 wt % | MIC (B. anthracis spores): 1.0 wt % | MIC (B. cereus spores): 5.0 wt % | MIC (B. subtilis spores): 5.0 wt % | MIC [2]: 4.0 wt % | MIC (E. coli B ATCC 23226): 0.01 wt % | MIC (S typhimurium ATCC 14028): 0.01 wt % | MIC (Listeria monocytogenes): 0.005 wt % | MIC [3]: 150 weight ppm

[Na+].[O-]Cl [NaHClO3, sodium hypochlorite]
MIC (B. anthracis): 0.05 wt % | MIC (B. cereus; [4]): 0.1 wt % | MIC (B. subtilis; [4]): 0.1 wt % | MIC (B. pumilus RJ 0055; [4]): 0.1 wt % | MIC (L. mesenteroides B 512F; [4]): 0.035 wt % | MIC [1, 4]: 0.01 wt % | MIC (B. anthracis spores): 1.0 wt % | MIC (B. cereus spores; […], component alone): 4.0 wt % | MIC (B. subtilis spores; […], component alone): 4.0 wt % | MIC ([2]; […], component alone): 3.5 wt % | MIC (E. coli B ATCC 23226; [4]): 0.02 wt % | MIC (S typhimurium ATCC 14028; [4]): 0.02 wt % | MIC (Listeria monocytogenes; [4]): 0.05 wt % | MIC [3, 5]: 500 weight ppm

[Na+].[Na+].[O-][O-] [Sodium Peroxide, sodium peroxide]
MIC [3, 5]: 150 weight ppm
